The text below walks through data of ChEMBL document CHEMBL4804281, “STK4 inhibitors for treatment of hematologic malignancies” (2020).

One may read the IC50 as the concentration that inhibits the measured activity by half.

Test [1] deals with T1, Serine/threonine-protein kinase 4 (Homo sapiens) (UniProt Q13043).
T1 sequence (whole entry): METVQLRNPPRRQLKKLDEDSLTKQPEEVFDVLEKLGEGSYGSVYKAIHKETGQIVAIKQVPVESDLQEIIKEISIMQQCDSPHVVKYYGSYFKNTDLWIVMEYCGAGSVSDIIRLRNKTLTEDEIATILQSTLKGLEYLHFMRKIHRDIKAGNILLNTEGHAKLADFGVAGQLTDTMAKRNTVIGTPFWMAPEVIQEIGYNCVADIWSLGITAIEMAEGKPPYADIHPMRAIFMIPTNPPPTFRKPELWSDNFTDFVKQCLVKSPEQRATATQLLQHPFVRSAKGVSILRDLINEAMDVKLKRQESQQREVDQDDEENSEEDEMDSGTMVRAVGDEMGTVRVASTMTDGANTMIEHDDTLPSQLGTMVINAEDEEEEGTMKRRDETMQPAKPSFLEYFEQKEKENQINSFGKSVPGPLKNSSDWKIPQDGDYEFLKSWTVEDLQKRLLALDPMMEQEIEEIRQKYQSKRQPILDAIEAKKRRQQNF
Briefly: Inhibition of STK4 (unknown origin) using fluorescein-labelled Ser/Thr-07 peptide as substrate incubated for 1 hr in presence of ATP at Km concentration by Z-LYTE assay.

The target in test [2] is Serine/threonine-protein kinase 24 (Homo sapiens) (UniProt Q9Y6E0). Briefly: Inhibition of STK24 (unknown origin) using fluorescein-labelled Ser/Thr-07 peptide as substrate incubated for 1 hr in presence of ATP at Km concentration by Z-LYTE assay.
Chain of Serine/threonine-protein kinase 24 (Homo sapiens) (Q9Y6E0 whole entry, looked up): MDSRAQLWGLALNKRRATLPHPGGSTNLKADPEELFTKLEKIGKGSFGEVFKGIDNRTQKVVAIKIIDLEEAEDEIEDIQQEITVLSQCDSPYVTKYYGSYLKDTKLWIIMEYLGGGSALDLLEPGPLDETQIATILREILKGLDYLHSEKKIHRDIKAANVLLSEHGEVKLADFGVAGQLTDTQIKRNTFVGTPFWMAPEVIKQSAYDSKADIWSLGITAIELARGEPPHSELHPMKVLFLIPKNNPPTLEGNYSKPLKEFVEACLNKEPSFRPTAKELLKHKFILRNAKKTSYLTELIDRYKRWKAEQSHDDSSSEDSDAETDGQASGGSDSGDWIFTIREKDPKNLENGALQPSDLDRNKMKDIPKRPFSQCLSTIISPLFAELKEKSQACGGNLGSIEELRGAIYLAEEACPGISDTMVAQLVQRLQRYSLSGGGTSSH
Test [3] has as its target T2, Serine/threonine-protein kinase 3 (Homo sapiens) (UniProt Q13188).
T2 sequence (whole entry): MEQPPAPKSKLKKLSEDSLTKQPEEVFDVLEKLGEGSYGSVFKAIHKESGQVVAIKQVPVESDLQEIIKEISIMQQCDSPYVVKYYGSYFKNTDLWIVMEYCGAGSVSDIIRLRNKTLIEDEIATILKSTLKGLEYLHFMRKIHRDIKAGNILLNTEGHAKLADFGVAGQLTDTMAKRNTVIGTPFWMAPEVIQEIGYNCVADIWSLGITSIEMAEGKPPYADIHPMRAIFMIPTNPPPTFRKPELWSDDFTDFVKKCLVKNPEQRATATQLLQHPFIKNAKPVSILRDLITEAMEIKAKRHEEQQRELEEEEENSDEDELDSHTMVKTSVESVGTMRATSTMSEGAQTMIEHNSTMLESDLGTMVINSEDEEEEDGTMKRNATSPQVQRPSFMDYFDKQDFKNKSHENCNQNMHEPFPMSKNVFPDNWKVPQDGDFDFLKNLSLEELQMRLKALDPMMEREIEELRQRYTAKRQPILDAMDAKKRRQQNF
Briefly: Inhibition of STK3 (unknown origin) using fluorescein-labelled Ser/Thr-07 peptide as substrate incubated for 1 hr in presence of ATP at Km concentration by Z-LYTE assay.

Test [4] deals with MM1.S. The test can be described thus: Upregulation of YAP1 protein level in human MM1.S cells at 1 uM measured after 16 hrs by Western blot analysis. It is filed as functional, cell-based. Background: In western blotting, separated proteins are transferred to a membrane and probed.
Test [5] has as its system MM1.S. Briefly: Downregulation of phosphorylated-MOB1 protein level in human MM1.S cells at 1 to 10 uM measured after 6 hrs by Western blot analysis. It is filed as functional, cell-based. The following applies: dose 1-10 µM.
Another test concerns NCI-H929. The test can be described thus: Upregulation of YAP1 protein level in human NCI-H929 cells at 3 to 10 uM measured after 72 hrs by Western blot analysis. It is filed as functional, cell-based. The following applies: dose 3-10 µM.
Test [6] deals with MM1.S. The test can be described thus: Upregulation of YAP1 protein level in human MM1.S cells at 3 to 10 uM measured after 72 hrs by Western blot analysis. It is filed as functional, cell-based. The following applies: dose 3-10 µM.

Structures are written as SMILES. Activity calls are given as the source filed them. No cut-off for these calls is given here.

Regarding `Cc1cc(S(=O)(=O)N(C)C2CC2)ccc1-c1cnc(N)c(-c2ccc3c(c2)CCNC3=O)c1`, the IC50 in test [1] was < 0.04 µM.

For `Cn1cnc2c(-c3cnc(N)c(-c4ccc5c(c4)CCNC5=O)c3)cccc21`, the IC50 in test [1] was 0.04 µM.

On to `Nc1ncc(-c2ccccc2F)cc1-c1ccc2c(c1)CCNC2=O`, for which the IC50 in test [1] was 0.04 µM.

For `CC(C)Oc1cc(S(=O)(=O)N(C)C2CC2)ccc1-c1cnc(N)c(-c2ccc3c(c2)CNC3=O)c1`, in test [1], the IC50 was < 0.04 µM.

With `Nc1ncc(-c2cccc3sccc23)cc1-c1ccc2c(c1)CCNC2=O`, the IC50 in test [1] is < 0.04 µM.

Consider `COc1cc(S(=O)(=O)N(C)C2CC2)ccc1-c1cnc(N)c(-c2ccc3c(c2)CCNC3=O)c1`, for which the IC50 in test [2] was 0.04 µM; in test [1] it was < 0.04 µM; in test [3], < 0.04 µM.

On to `CN(C1CC1)S(=O)(=O)c1ccc(-c2cnc(N)c(-c3ccc4c(=O)[nH]cnc4c3)c2)c(F)c1`, for which the IC50 in test [1] is < 0.04 µM.

With `Nc1ncc(-c2cc(F)cc([N+](=O)[O-])c2)cc1-c1ccc2c(c1)CCNC2=O`, the IC50 in test [1] came to 0.04 µM.

Regarding `Nc1ncc(-c2cncc3ncsc23)cc1-c1ccc2c(c1)CCNC2=O`, in test [1], the IC50 was found to be 0.2 µM.

On to `CC(C)Oc1cc(S(=O)(=O)N(C)C2CC2)ccc1-c1cnc(N)c(-c2ccc3c(c2)CCNC3=O)c1`, for which the IC50 in test [1] was < 0.04 µM.

As to `CC(C)Oc1cc(NS(=O)(=O)C2CC2)ccc1-c1cnc(N)c(-c2ccc3c(c2)CCNC3=O)c1`, the IC50 in test [1] is < 0.04 µM.

`Nc1ncc(-c2ccc(F)c3ncsc23)cc1-c1ccc2c(c1)CNC2=O`: in test [1], the IC50 came to 0.04 µM.

With `Nc1ncc(-c2cccc(S(N)(=O)=O)c2)cc1-c1ccc2c(c1)CCNC2=O`, the IC50 in test [1] is 0.2 µM.

Consider `Nc1ncc(-c2cc(-c3cccc4ncsc34)ccc2F)cc1-c1ccc2c(=O)[nH]cnc2c1`, for which the IC50 in test [1] was 0.04 µM.

Regarding `Nc1ncc(-c2cc([N+](=O)[O-])ccc2Cl)cc1-c1ccc2c(c1)CCNC2=O`, the IC50 in test [1] was > 0.9 µM.

Consider `Nc1ncc(-c2cc3scnc3cc2F)cc1-c1ccc2c(c1)CCNC2=O`, for which, in test [1], the IC50 is 0.04 µM.

Turning to `CCNC(=O)c1ccc(F)c(-c2cnc(N)c(-c3ccc4c(c3)CCNC4=O)c2)c1`, in test [1], the IC50 is > 0.9 µM.

Regarding `CN(C1CC1)S(=O)(=O)c1ccc(-c2cnc(N)c(-c3ccc4c(c3)CCNC4=O)c2)cc1`, the IC50 in test [1] is < 0.04 µM. Besides, in the test with MM1.S [4], the result was Active.

Take `Nc1ncc(-c2cccc([N+](=O)[O-])c2)cc1-c1ccc2c(c1)CCNC2=O`: the IC50 in test [1] was < 0.04 µM.

Take `C#Cc1cc(F)c(-c2cnc(N)c(-c3ccc4c(c3)CCNC4=O)c2)cc1[N+](=O)[O-]`: the IC50 in test [1] came to 0.04 µM.

Consider `Nc1ncc(-c2cc3c(cc2F)OCC(=O)N3)cc1-c1ccc2c(c1)CCNC2=O`, for which the IC50 was < 0.04 µM in test [1] and 0.04 µM in test [3]. The outcome in the test on MM1.S [5] was Active.

With `Nc1ncc(-c2ccc(NS(=O)(=O)C3CC3)cc2OC2CCCC2)cc1-c1ccc2c(c1)CCNC2=O`, the IC50 in test [1] is < 0.04 µM.

For the compound `Nc1ncc(-c2ccc(F)c3ncsc23)cc1-c1ccc2c(c1)CCNC2=O`, the IC50 in test [1] is < 0.04 µM.

As to `COc1cc(S(=O)(=O)N(C)C2CCCCC2)ccc1-c1cnc(N)c(-c2ccc3c(c2)CCNC3=O)c1`, in test [1], the IC50 came out at 0.04 µM.

With `Nc1ncc(-c2cccc(-c3nccs3)c2)cc1-c1ccc2c(c1)CCNC2=O`, the IC50 in test [1] was < 0.04 µM.

As for `NC(=O)c1ccc(-c2cc(-c3cc([N+](=O)[O-])ccc3F)cnc2N)cc1Cl`, in test [1], the IC50 was 0.2 µM.

Turning to `Nc1ncc(-c2cc([N+](=O)[O-])cc(F)c2F)cc1-c1ccc2c(c1)CCNC2=O`, in test [1], the IC50 was determined as 0.04 µM.

In the case of `N#Cc1cccc(-c2cnc(N)c(-c3ccc4c(c3)CCNC4=O)c2)c1`, the IC50 in test [2] is 0.2 µM; in test [1], 0.04 µM; in test [3], 0.04 µM.

In the case of `COc1cc(S(=O)(=O)N(C)C2CCOCC2)ccc1-c1cnc(N)c(-c2ccc3c(c2)CCNC3=O)c1`, the IC50 in test [1] worked out at 0.04 µM.

Regarding `Nc1ncc(-c2cc([N+](=O)[O-])c(NCc3ccccc3)cc2F)cc1-c1ccc2c(c1)CCNC2=O`, the IC50 in test [1] came to 0.04 µM. In addition, in the test with MM1.S [5], the outcome was Active.

In the case of `Nc1ncc(-c2cccc(S(=O)(=O)NC3CC3)c2)cc1-c1ccc2c(c1)CCNC2=O`, the IC50 in test [2] turned out to be 0.2 µM; in test [1], 0.04 µM; in test [3], 0.04 µM. In addition, the result in the test on NCI-H929 and in the test on MM1.S [6] was Active.

Take `COc1cc(S(=O)(=O)NC2CC2)ccc1-c1cnc(N)c(-c2ccc3c(c2)CCNC3=O)c1`: the IC50 in test [1] was < 0.04 µM.

On to `Nc1ncc(-c2cccc3scnc23)cc1-c1ccc2c(c1)CCNC2=O`, for which the IC50 in test [1] is 0.04 µM.

Consider `CN1CCc2cc(-c3cc(-c4ccc(S(=O)(=O)N(C)C5CC5)cc4F)cnc3N)ccc2C1=O`, for which the IC50 in test [1] was < 0.04 µM.

For `Nc1ncc(-c2cnccc2F)cc1-c1ccc2c(c1)CCNC2=O`, the IC50 in test [1] was 0.2 µM.

On to `COc1ccncc1-c1cnc(N)c(-c2ccc3c(c2)CCNC3=O)c1`, for which the IC50 in test [1] is > 0.9 µM.

As to `Nc1ncc(-c2cc([N+](=O)[O-])cnc2F)cc1-c1ccc2c(c1)CCNC2=O`, in test [1], the IC50 amounted to 0.2 µM.

As for `COc1cc(-c2nccs2)ccc1-c1cnc(N)c(-c2ccc3c(c2)CCNC3=O)c1`, the IC50 in test [1] was determined as 0.04 µM.

Consider `CCOc1cc(S(=O)(=O)N(C)C2CC2)ccc1-c1cnc(N)c(-c2ccc3c(c2)CCNC3=O)c1`, for which, in test [1], the IC50 was < 0.04 µM.

For `CN1CCc2cc(-c3cc(-c4cccc5ncsc45)cnc3N)ccc2C1=O`, the IC50 in test [1] was 0.04 µM.

On to `NC(=O)c1ccc(-c2cc(-c3cc([N+](=O)[O-])ccc3F)cnc2N)cc1`, for which, in test [1], the IC50 is 0.2 µM.

For the compound `Nc1ncc(-c2ccc3ncsc3c2)cc1-c1ccc2c(c1)CCNC2=O`, in test [1], the IC50 was 0.04 µM.

In the case of `Nc1ncc(-c2cc(F)ccc2[N+](=O)[O-])cc1-c1ccc2c(c1)CCNC2=O`, the IC50 in test [1] is > 0.9 µM.

With `Nc1ncc(-c2ccc(NS(=O)(=O)C3CC3)cc2OCc2ccccc2)cc1-c1ccc2c(c1)CCNC2=O`, the IC50 in test [1] was 0.04 µM.

Turning to `C#Cc1ccc(-c2cnc(N)c(-c3ccc4c(c3)CCNC4=O)c2)c(OC)c1`, in test [1], the IC50 is < 0.04 µM.

For `Nc1ncc(-c2ccc([N+](=O)[O-])cc2F)cc1-c1ccc2c(c1)CCNC2=O`, in test [1], the 50% inhibitory concentration (IC50) was determined as 0.04 µM.

With `Cc1cc(N2CCOCC2)cc2[nH]c(-c3c(NC[C@@H](O)c4cccc(Cl)c4)cc[nH]c3=O)nc12`, the IC50 in test [1] came to 0.04 µM. Also, the outcome with MM1.S [4] was inactive.

In the case of `N#Cc1cc(-c2cc(-c3cc([N+](=O)[O-])ccc3F)cnc2N)ccc1O`, the IC50 in test [1] is 0.2 µM.

Take `Nc1ncc(-c2cc([N+](=O)[O-])c(Cl)cc2F)cc1-c1ccc2c(c1)CCNC2=O`: the IC50 in test [1] and in test [3] was 0.04 µM in each case. In the test with MM1.S [5], the outcome was Active.

On to `Nc1ncc(-c2cccc(NS(=O)(=O)C3CC3)c2)cc1-c1ccc2c(c1)CCNC2=O`, for which the IC50 in test [1] is < 0.04 µM.

For the compound `Nc1ncc(-c2scnc2Cl)cc1-c1ccc2c(c1)CCNC2=O`, the IC50 in test [2] is > 0.9 µM; in test [1] it was 0.04 µM; in test [3], 0.04 µM.

With `CN(C1CC1)S(=O)(=O)c1ccc(-c2cnc(N)c(-c3ccc4c(c3)CNC4=O)c2)c(F)c1`, the IC50 was > 0.9 µM in test [2], < 0.04 µM in test [1] and < 0.04 µM in test [3].
